# Laboratory results from PubChem BioAssay (NCI).
#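 Protocol summary: plate cells (96-well), add compound at 5 concentrations, incubate 48 h, interpolate endpoints linearly. TGI: concentration producing complete growth inhibition.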
# Tests used:
# Experiment in all cases: NCI anticancer screen, dose series, 48 h
# COLO 205 colon = tested on: COLO 205 colon
# DMS 114 small cell lung = tested on: DMS 114 small cell lung
# HCC-2998 colon = tested on: HCC-2998 colon
# HOP-62 NSCLC = tested on: HOP-62 NSCLC
# K-562 leukemia = tested on: K-562 leukemia
# KM20L2 colon = tested on: KM20L2 colon
# MDA-MB-435 = tested on: MDA-MB-435
# SF-539 CNS = tested on: SF-539 CNS
# SNB-75 CNS = tested on: SNB-75 CNS
# UACC-257 melanoma = tested on: UACC-257 melanoma
smiles,measurement,setting,value
O=C1C=C(Nc2ccccc2C(=O)CC(=O)C(=O)Nc2cccc(C(F)(F)F)c2)c2ccccc2C1=O,TGI,COLO 205 colon,> 100 µM
same,TGI,DMS 114 small cell lung,35.1 µM
same,TGI,HCC-2998 colon,> 78 µM
same,TGI,HOP-62 NSCLC,> 72.7 µM
same,TGI,K-562 leukemia,> 94.9 µM
same,TGI,KM20L2 colon,> 100 µM
same,TGI,MDA-MB-435,20.9 µM
same,TGI,SF-539 CNS,49 µM
same,TGI,SNB-75 CNS,> 96.9 µM
same,TGI,UACC-257 melanoma,31.8 µM
O=Cc1ccc(-c2ccc(-c3ccc(C=O)s3)o2)s1,TGI,COLO 205 colon,37 µM
same,TGI,DMS 114 small cell lung,> 100 µM
same,TGI,HCC-2998 colon,51.5 µM
same,TGI,HOP-62 NSCLC,> 100 µM
same,TGI,K-562 leukemia,> 100 µM
same,TGI,KM20L2 colon,> 100 µM
same,TGI,MDA-MB-435,> 100 µM
same,TGI,SF-539 CNS,> 100 µM
same,TGI,SNB-75 CNS,78.8 µM
same,TGI,UACC-257 melanoma,16.2 µM
